# Test results reported in patent US12209087B2, “AKT1 modulators” (Alterome Therapeutics, Inc., priority 2022, dated 2025).
# Target: T1, full length AKT E17K (Homo sapiens, UniProt P31749, E17K)
# T1 construct: host or cells: HEK-293 (ATCC CRL-1573)
# Assay: NanoBRET Target Engagement (TE) Assay
# Format: cell-based
# Settings: competitive displacement of tracer in cells, read-out: AKT1 E17K IC50
# Summary of the method: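 Compound and tracer incubated 2 h before luminescence at donor 450 nm and acceptor 600 nm, with extracellular signal inhibited. EC50 by sigmoidal variable-slope regression.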
# T1 sequence (P31749 whole entry E17K): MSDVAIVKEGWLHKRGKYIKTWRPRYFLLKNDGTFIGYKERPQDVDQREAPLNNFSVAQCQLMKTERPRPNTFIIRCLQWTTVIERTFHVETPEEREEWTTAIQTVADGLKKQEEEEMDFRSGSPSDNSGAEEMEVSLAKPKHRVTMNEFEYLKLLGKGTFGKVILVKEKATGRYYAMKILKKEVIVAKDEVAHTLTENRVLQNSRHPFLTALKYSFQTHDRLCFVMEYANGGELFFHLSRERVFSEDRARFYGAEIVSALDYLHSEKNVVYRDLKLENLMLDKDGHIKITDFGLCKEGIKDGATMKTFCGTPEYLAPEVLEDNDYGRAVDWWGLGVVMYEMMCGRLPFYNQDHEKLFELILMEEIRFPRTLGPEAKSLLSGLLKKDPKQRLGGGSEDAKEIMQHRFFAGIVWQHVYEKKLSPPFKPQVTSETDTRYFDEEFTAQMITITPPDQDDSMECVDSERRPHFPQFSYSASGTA
row,IC50 [nM],Compound
1,< 15,"Cc1nc2c(cc1C#N)nc(-c1cccnc1N)n2-c1ccc(CN2CCC(Nc3ccnc(C#N)n3)CC2)cc1 [Example 550, 2-(2-Aminopyridin-3-yl)-3-(4-((4-((2-cyanopyrimidin-4-yl)amino)piperidin-1-yl)methyl)phenyl)-5-methyl-3H-imidazo[4,5-b]pyridine-6-carbonitrile]"
2,60 to 600,"N#Cc1ccnc(NC2CCN(Cc3ccc(-n4c(-c5cccnc5N)nc5ccc(-c6ccc(Cl)cc6)nc54)cc3)CC2)n1 [Example 371, 2-((1-(4-(2-(2-Aminopyridin-3-yl)-5-(4-chlorophenyl)-3H-imidazo[4,5-b]pyridin-3-yl)benzyl)piperidin-4-yl)amino)pyrimidine-4-carbonitrile]"
3,< 15,"N#Cc1nccc(NC2CCN(Cc3ccc(-n4c(-c5cccnc5N)nc5ccc(-c6ccc(CF)cn6)nc54)cc3)CC2)n1 [Example 648, 4-((1-(4-(2-(2-Aminopyridin-3-yl)-5-(5-(fluoromethyl)pyridin-2-yl)-3H-imidazo[4,5-b]pyridin-3-yl)benzyl)piperidin-4-yl)amino)pyrimidine-2-carbonitrile]"
4,< 15,"N#Cc1cc(-c2ccc3nc(-c4cccnc4N)n(-c4ccc(CN5CCC(Nc6ccnc(C#N)n6)CC5)cc4)c3n2)ccn1 [Example 429, 4-((1-(4-(2-(2-Aminopyridin-3-yl)-5-(2-cyanopyridin-4-yl)-3H-imidazo[4,5-b]pyridin-3-yl)benzyl)piperidin-4-yl)amino)pyrimidine-2-carbonitrile]"
5,< 15,"Cc1cnc(-c2ccc3nc(-c4cccnc4N)n(-c4ccc(CN5CCC(Nc6ccnc(C#N)n6)CC5)cc4)c3n2)cn1 [Example 582, 4-((1-(4-(2-(2-Aminopyridin-3-yl)-5-(5-methylpyrazin-2-yl)-3H-imidazo[4,5-b]pyridin-3-yl)benzyl)piperidin-4-yl)amino)pyrimidine-2-carbonitrile]"
6,< 15,"C#Cc1ccc2nc(-c3cccnc3N)n(-c3ccc(CN4CCC(Nc5ccnc(C#N)n5)CC4)cc3)c2n1 [Example 513, 4-((1-(4-(2-(2-Aminopyridin-3-yl)-5-ethynyl-3H-imidazo[4,5-b]pyridin-3-yl)benzyl)piperidin-4-yl)amino)pyrimidine-2-carbonitrile]"
7,< 15,"Cn1cc(-c2ccc3nc(-c4cccnc4N)n(-c4ccc(CN5CCC(Nc6ccnc(C#N)n6)CC5)cc4)c3n2)nn1 [Example 438, 4-((1-(4-(2-(2-Aminopyridin-3-yl)-5-(1-methyl-1H-1,2,3-triazol-4-yl)-3H-imidazo[4,5-b]pyridin-3-yl)benzyl)piperidin-4-yl)amino)pyrimidine-2-carbonitrile]"
8,< 15,"N#Cc1nccc(NC2CCN(Cc3ccc(-n4c(-c5cccnc5N)nc5ccc(-c6ccccn6)nc54)cc3)CC2)n1 [Example 495, 4-((1-(4-(2-(2-Aminopyridin-3-yl)-5-(pyridin-2-yl)-3H-imidazo[4,5-b]pyridin-3-yl)benzyl)piperidin-4-yl)amino)pyrimidine-2-carbonitrile]"
9,15 to 60,"CN1CCCN(c2ccc3nc(-c4cccnc4N)n(-c4ccc(CN5CCN(c6ccnc(C#N)n6)CC5)cc4)c3n2)CC1=O [Example 386, 4-(4-(4-(2-(2-Aminopyridin-3-yl)-5-(4-methyl-3-oxo-1,4-diazepan-1-yl)-3H-imidazo[4,5-b]pyridin-3-yl)benzyl)piperazin-1-yl)pyrimidine-2-carbonitrile]"

# Same assay, conditions: competitive tracer displacement in living cells, read-out: AKT1 E17K IC50
row,IC50 [nM],Compound
1,< 15,"N#Cc1nccc(NC2CCN(Cc3ccc(-n4c(-c5cccnc5N)nc5ccc(N6CCOCC6)nc54)cc3)CC2)n1 [Example 239, 4-((1-(4-(2-(2-Aminopyridin-3-yl)-5-morpholino-3H-imidazo[4,5-b]pyridin-3-yl)benzyl)piperidin-4-yl)amino)pyrimidine-2-carbonitrile]"
2,60 to 600,"N#Cc1ncccc1C(=O)N1CCN(Cc2ccc(-n3c(-c4cccnc4N)nc4ccc(-c5ccccc5)nc43)cc2)CC1 [Example 143, 3-(4-(4-(2-(2-Aminopyridin-3-yl)-5-phenyl-3H-imidazo[4,5-b]pyridin-3-yl)benzyl)piperazine-1-carbonyl)picolinonitrile]"
3,600 to 10000,"N#Cc1ccc(C(=O)NCc2ccc(-n3c(-c4cccnc4N)nc4cccnc43)cc2)cn1 [Example 121, N-(4-(2-(2-Aminopyridin-3-yl)-3H-imidazo[4,5-b]pyridin-3-yl)benzyl)-6-cyanonicotinamide]"
4,< 15,"Cc1ccc2nc(-c3cccnc3N)n(-c3ccc(CN4CCC(Nc5ccnc(C#N)n5)CC4)cc3)c2n1 [Example 280, 4-((1-(4-(2-(2-Aminopyridin-3-yl)-5-methyl-3H-imidazo[4,5-b]pyridin-3-yl)benzyl)piperidin-4-yl)amino)pyrimidine-2-carbonitrile]"
5,< 15,"N#Cc1nccc(C(=O)NC2CCN(Cc3ccc(-n4c(-c5cccnc5N)nc5ccc(-c6ccccc6)nc54)cc3)CC2)n1 [Example 151, N-(1-(4-(2-(2-Aminopyridin-3-yl)-5-phenyl-3H-imidazo[4,5-b]pyridin-3-yl)benzyl)piperidin-4-yl)-2-cyanopyrimidine-4-carboxamide]"
6,< 15,"N#Cc1nc2cc(F)cc(C(=O)NCc3ccc(-n4c(-c5cccnc5N)nc5cccnc54)cc3)c2s1 [Example 173, N-(4-(2-(2-aminopyridin-3-yl)-3H-imidazo[4,5-b]pyridin-3-yl)benzyl)-2-cyano-5-fluorobenzo[d]thiazole-7-carboxamide]"
7,600 to 10000,"N#Cc1ccnc(N2CCN(Cc3ccc(-n4c(-c5cccnc5N)nc5ccc(-c6ccccc6)nc54)cc3)CC2)c1 [Example 66, 2-(4-(4-(2-(2-Aminopyridin-3-yl)-5-phenyl-3H-imidazo[4,5-b]pyridin-3-yl)benzyl)piperazin-1-yl)isonicotinonitrile]"
8,600 to 10000,"N#Cc1cnccc1C(=O)NC1CCN(Cc2ccc(-n3c(-c4cccnc4N)nc4cccnc43)cc2)CC1 [Example 36, N-(1-(4-(2-(2-Aminopyridin-3-yl)-3H-imidazo[4,5-b]pyridin-3-yl)benzyl)piperidin-4-yl)-3-cyanoisonicotinamide]"
9,600 to 10000,"N#Cc1ncccc1C(=O)N1CCN(Cc2ccc(-n3c(-c4cccnc4N)nc4cccnc43)cc2)CC1 [Example 153, 3-(4-(4-(2-(2-Aminopyridin-3-yl)-3H-imidazo[4,5-b]pyridin-3-yl)benzyl)piperazine-1-carbonyl)picolinonitrile]"
10,600 to 10000,"N#Cc1ncc(C(=O)NCc2ccc(-n3c(-c4cccnc4N)nc4cccnc43)cc2)cn1 [Example 119, N-(4-(2-(2-Aminopyridin-3-yl)-3H-imidazo[4,5-b]pyridin-3-yl)benzyl)-2-cyanopyrimidine-5-carboxamide]"
11,600 to 10000,"N#Cc1ccc(C(=O)NC2CCN(Cc3ccc(-n4c(-c5cccnc5N)nc5cccnc54)cc3)CC2)cn1 [Example 24, N-(1-(4-(2-(2-Aminopyridin-3-yl)-3H-imidazo[4,5-b]pyridin-3-yl)benzyl)piperidin-4-yl)-6-cyanonicotinamide]"
12,< 15,"N#Cc1nccc(N2CCN(Cc3ccc(-n4c(-c5cccnc5N)nc5ccc(-c6ccc[nH]c6=O)nc54)cc3)CC2)n1 [Example 259, 4-(4-(4-(2-(2-Aminopyridin-3-yl)-5-(2-oxo-1,2-dihydropyridin-3-yl)-3H-imidazo[4,5-b]pyridin-3-yl)benzyl)piperazin-1-yl)pyrimidine-2-carbonitrile]"
